Data published in PubChem BioAssay (NCI).
Values joined by “and” are separate entries in the source; they are usually repeats but may differ in a detail not shown here. Equal values may be shown once.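 How tested: cells in 96-well plates exposed to compound for 48 hours at five concentrations. Here, GI50 denotes the concentration required for 50% inhibition of growth. At the TGI there is no net growth.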 *1 amine or outer side, *2 acyl side, *3 side chain or, on linkers, in order; H or OH if unused. Where a SMILES comes first, the peptide text is derived from it. Bridges are numbered along the chain shown (N, C = ends). Roman numbers before positions name the chains, in order. [ ]: non-standard residue; d: D form. Actinocin(9to1) = Cc1c2oc3c(C)ccc(C(=O)[*:1])c3nc-2c(C(=O)[*:2])c(N)c1=O; NMeV = CN[CH](C(=O)O)C(C)C; Sar = CNCC(=O)O

Key:
Assay in all cases: NCI-60 cell line screen, 48 h
RXF 393 renal = tested on: RXF 393 renal
NCI-H460 lung = tested on: NCI-H460 lung
HCC-2998 colon = tested on: HCC-2998 colon
KM12 colon = tested on: KM12 colon
HS 578T breast = tested on: HS 578T breast
NCI/ADR-RES ovarian = tested on: NCI/ADR-RES ovarian

| SMILES | TGI (RXF 393 renal) | TGI (NCI-H460 lung) | TGI (HCC-2998 colon) [µM] | TGI (KM12 colon) [µM] | TGI (HS 578T breast) | TGI (NCI/ADR-RES ovarian) [µM] | GI50 (RXF 393 renal) [µM] | GI50 (HCC-2998 colon) [µM] | GI50 (NCI-H460 lung) | GI50 (KM12 colon) [µM] | GI50 (NCI/ADR-RES ovarian) [µM] |
| --- | --- | --- | --- | --- | --- | --- | --- | --- | --- | --- | --- |
| CC(=O)O[C@H]1CC[C@@]2(C)C(=CC[C@@H]3[C@@H]2CC[C@]2(C)C(=N/O)/C(=C\c4ccccc4)C[C@@H]32)C1 | 40 µM | 97.9 µM | 32 | 10.6 | 50.9 µM | > 72.9 | – | – | – | – | – |
| ClC(Cl)(Cl)C1CCOC1n1nnc2ccccc21 (stereo not drawn) | > 100 µM | – | > 100 | – | > 100 µM | > 100 | – | – | – | – | – |
| COc1ccc(C2C3=C(N=C4SC(C(C)=O)=C(C)N42)c2ccccc2CC3)cc1 (stereo not drawn) | > 100 µM | – | > 100 | > 100 | > 100 µM | – | – | – | – | – | – |
| CC(C)(C)OC(=O)N/C(C=O)=C\C1CCCCC1 | 59.7 µM | 40.6 µM | 37.3 | 77.6 | 84.7 µM | 44.3 | – | – | – | – | – |
| Cc1ccc(S(=O)(=O)NC(CCC(=O)NNc2ccccc2)C(=O)NNc2ccccc2)cc1 (stereo not drawn) | > 100 µM | 51.6 µM | – | > 100 | > 100 µM | > 100 | – | – | – | – | – |
| CC(C)(C)OC(=O)NC12C3C4C1C1C2C3C41NC(=O)OC(C)(C)C (stereo not drawn) | 84.4 µM | > 100 µM | > 100 | 39.3 | > 100 µM | > 100 | – | – | – | – | – |
| NC(Cc1ccc(OCc2ccccc2)cc1)C(=O)NC(Cc1ccccc1)C(=O)Oc1c(Cl)c(Cl)c(Cl)c(Cl)c1Cl (stereo not drawn) | 28.3 µM | 30.5 µM | 34 | 28.8 | 31 µM | 40.7 | – | – | – | – | – |
| CCc1cccc2c3c([nH]c12)-c1ccccc1NC(=O)C3 | – | > 100 µM | – | > 100 | > 100 µM | > 100 | – | – | – | – | – |
| O=c1[nH]c(=O)n(C2CC(O)C(CO)O2)cc1Oc1ccccc1 (stereo not drawn) | > 100 µM | > 100 µM | – | > 100 | > 100 µM | > 100 | – | – | – | – | – |
| COc1cc(/C=C2\CC/C(=C\c3cc(OC)c(O)c(OC)c3)C2=O)cc(OC)c1O | 3.74 µM | > 100 µM | 3.38 | 4.52 | 15.8 µM | 13.9 | – | – | – | – | – |
| O=C1NC(=O)c2ccccc2/C1=C/c1ccc2c(c1)OCO2 | 17.4 µM | – | 38.9 | 41 | 47.2 µM | 69.2 | – | – | – | – | – |
| CSC(=S)Nc1cc(C)cc(C)n1 | > 31.6 µM | > 31.6 µM | > 31.6 | > 31.6 | > 31.6 µM | > 31.6 | – | – | – | – | – |
| Cc1cn(C2CCC(CO)(CF)O2)c(=O)[nH]c1=O (stereo not drawn) | > 100 µM | > 100 µM | > 100 | > 100 | > 100 µM | > 100 | – | – | – | – | – |
| COc1cc2cc(C(=O)N3CC(COS(C)(=O)=O)c4ccc(NC(=O)OCc5ccccc5)cc43)[nH]c2c(OC)c1OC (stereo not drawn) | > 100 µM | > 100 µM | > 100 | > 100 | > 100 µM | > 100 | – | – | – | – | – |
| Cc1c(CNc2ccc(C(=O)NC(CCCNC(=O)c3ccccc3C(=O)O)C(=O)O)cc2)cnc2nc(N)nc(N)c12 (stereo not drawn) | 2.15 µM | – | – | – | – | > 100 | 0.279 | 0.167 | – | – | – |
| Nc1ccc(-c2nc3ccccc3s2)cc1Cl | > 94.2 µM | > 100 µM | > 100 | > 100 | > 100 µM | > 100 | – | – | – | – | – |
| C(/C=N/NC1=NCCCCN1)=N\NC1=NCCCCN1 | – | > 100 µM | > 100 | > 100 | > 100 µM | > 100 | – | – | – | – | – |
| Cc1cc(C)c2c(c1)CC1(Cc3cc(C)c(C)cc3C1=O)C2=O (stereo not drawn) | > 100 µM | > 100 µM | > 100 | > 100 | > 100 µM | > 100 | – | – | – | – | – |
| CC1=NN(c2cccc(Cl)c2)C2(C1=Cc1ccc(O)cc1)C(Cl)C(=O)N2c1nc2ccccc2s1 (stereo not drawn) | 47.9 µM | 89.3 µM | 35 | 65 | > 100 µM | 59.7 | – | – | – | – | – |
| N#Cc1nc2cc(Cl)ccc2nc1N1CCN(c2ccc([N+](=O)[O-])cc2)CC1 | > 100 µM | > 100 µM | > 100 | > 100 | > 100 µM | > 100 | – | – | – | – | – |
| O[C@@H]1C=C[C@]23CCN(Cc4cc5c(cc42)OCO5)[C@@H]3C1 | > 100 µM | > 100 µM | – | > 100 | > 100 µM | > 100 | – | – | – | – | – |

| SMILES | TGI (RXF 393 renal) | TGI (NCI-H460 lung) | TGI (HCC-2998 colon) [µM] | TGI (KM12 colon) [µM] | TGI (HS 578T breast) | TGI (NCI/ADR-RES ovarian) [µM] | GI50 (RXF 393 renal) [µM] | GI50 (HCC-2998 colon) [µM] | GI50 (NCI-H460 lung) | GI50 (KM12 colon) [µM] | GI50 (NCI/ADR-RES ovarian) [µM] |
| --- | --- | --- | --- | --- | --- | --- | --- | --- | --- | --- | --- |
| CC1CC[C@@]2(OC1)O[C@H]1[C@H](O)[C@H]3[C@@H]4CC[C@H]5C[C@@H](OC6OC(CO)C(OC7OC(CO)C(O)C(OC8OCC(O)C(O)C8O)C7OC7OC(CO)C(O)C(O)C7OC7OC(CO)C(O)C(O)C7O)C(O)C6O)[C@H](O)C[C@]5(C)[C@H]4CC[C@]3(C)[C@H]1[C@@H]2C (stereo partly drawn) | > 10 µM | > 10 µM | > 10 | > 10 | > 10 µM | > 10 | – | – | – | – | – |
| COc1cc2ccc(C(=O)NCCCNC(=O)c3ccc4cc(OC)c(OC)cc4c3)cc2cc1OC | – | > 100 µM | > 100 | > 100 | > 100 µM | > 100 | – | – | – | – | – |
| CC1CC/C(=C\c2ccc(F)cc2)C2=C1C(c1ccc(F)cc1)N1C(=O)CSC1=N2 (stereo not drawn) | > 100 µM | > 100 µM | – | > 100 | > 100 µM | > 100 | – | – | – | – | – |
| C#CC(O)(c1nc2ccccc2s1)c1nc2ccccc2s1 | 89.7 µM | – | – | > 100 | > 100 µM | 75.6 | – | – | – | – | – |
| FC(F)(F)c1cc(N(C2c3ccccc3C=Cc3ccccc32)P(Cl)Cl)cc(C(F)(F)F)c1 | 27.1 µM | – | – | 49.4 | 79.5 µM | 21.6 | – | – | – | – | – |
| COC(=O)[C@H](Cc1c[nH]c2ccccc12)NP(=O)(OCCC#N)OCC1OC(n2cc(C)c(=O)[nH]c2=O)CC1N=[N+]=[N-] (stereo partly drawn) | > 100 µM | > 100 µM | > 100 | > 100 | – | > 100 | – | – | – | – | – |
| CN(Cc1cnc2nc(N)nc(N)c2n1)c1ccc(C(=O)NC23CC4CC(CC(C4)C2)C3)cc1 | 40.4 µM | 18.6 µM | – | 24.8 | 31.9 µM | > 100 | – | – | – | – | – |
| O=c1c2cc(C(F)(F)F)ccc2sc2c(NCCCNCCO)nc3ccccc3c12 | 2.82 µM | 2.57 µM | 3.29 | 3.17 | – | – | 1.4 | 1.67 | 1.22 µM | 1.62 | – |
| Clc1sc(Cl)c2c1[C@@H](Cl)C[C@@H]2Cl | – | > 100 µM | > 100 | > 100 | > 100 µM | > 100 | – | – | – | – | – |
| COC(C/C(=C/CO[Si](C(C)C)(C(C)C)C(C)C)C(=O)N(COCC[Si](C)(C)C)c1ccccc1I)OC | – | > 100 µM | > 100 | > 100 | > 100 µM | > 100 | – | – | – | – | – |
| O=C(c1ccccc1)c1ccc2nc(-c3c(Cl)c(Cl)c(Cl)c(Cl)c3-c3nnc(-c4ccccc4)o3)[nH]c2c1 | 47.1 µM | – | – | > 100 | > 100 µM | > 100 | – | – | – | – | – |
| O=C(COc1ccc(OCC(=O)N2C(=O)CC(=O)N(c3ccc(Cl)cc3)C2=S)cc1)N1C(=O)CC(=O)N(c2ccc(Cl)cc2)C1=S | 83.1 µM | > 100 µM | > 100 | 41.6 | – | 93.4 | – | – | – | – | – |
| C1=NCCNCCNCCN=Cc2ccc(cc2)OCc2cccc(n2)COc2ccc1cc2 | > 100 µM | > 100 µM | – | > 100 | > 100 µM | > 100 | – | – | – | – | – |
| Cc1c2oc3c(C)ccc(C(=O)NC4C(=O)NC(Cc5ccccc5)C(=O)N5CCCC5C(=O)N(C)CC(=O)N(C)C(C(C)C)C(=O)OC4C)c3nc-2c(C(=O)NC2C(=O)NC(Cc3ccccc3)C(=O)N3CCCC3C(=O)N(C)CC(=O)N(C)C(C(C)C)C(=O)OC2C)c(N)c1=O (stereo not drawn) (I: TFP[Sar][NMeV] / II: TFP[Sar][NMeV]; ester I:1-I:C, II:1-II:C; linker I:N-II:N via Actinocin(9to1); configuration not given here) | 0.00952 µM and 0.0394 µM | – | – | 1.05 | 0.0472 µM and 0.055 µM | > 100 | < 0.001 | – | – | – | 0.877 |
| CN1/C(=C/C=C/C=C/C=C2C(=O)c3ccccc3C2=O)C(C)(C)c2ccccc21 | 81.4 µM | > 100 µM | – | > 100 | > 100 µM | > 100 | – | – | – | – | – |
| C#C[C@]1(O)CC[C@H]2[C@@H]3CCC4=C/C(=N/NC(=O)c5cccc6c(=O)c7ccccc7[nH]c56)CCC4[C@H]3CC[C@@]21C (stereo partly drawn) | – | – | > 100 | > 100 | > 100 µM | > 100 | – | – | – | – | – |
| O=[N+]([O-])c1ccc(NN=C2CN3CCN(C2)c2ccccc23)c([N+](=O)[O-])c1 | – | > 100 µM | > 100 | > 100 | > 100 µM | > 100 | – | – | – | – | – |
| CC(C)(C)C1CCC2c3c([nH]c4ccccc34)C3C(=O)N(c4ccc(C#N)cc4)C(=O)C3C2C1 (stereo not drawn) | 15.4 µM | 17.1 µM | 11.1 | – | 37 µM | 53.5 | – | – | – | – | – |
| CC1C(NNC(N)=O)Oc2cc3c(cc2C1c1ccccc1O)OCO3 (stereo not drawn) | 84.6 µM | > 100 µM | > 100 | > 100 | > 100 µM | – | – | – | – | – | – |
| CC(C)(C)c1ccc(C(O)CCCN2CCC(C(O)(c3ccccc3)c3ccccc3)CC2)cc1 (stereo not drawn) | 2.27 µM | 2.95 µM and 21.5 µM | – | – | – | – | 1.08 | – | 1.6 µM and 14.6 µM | – | – |
